Like-named read-outs stand apart in the source and are kept apart here.
What was measured:
[1] = target: c-Src (Homo sapiens (Human), UniProt P12931); experiment: c-Src enzyme inhibition (FRET, Z-LYTE); type: biochemical
How it was run: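 Syk or c-Src enzyme (3000 or 2000 ng/mL solutions) was preincubated 2 h at RT with compound solutions at 1, 0.1, 0.01 or 0.001 µg/mL. Z-LYTE FRET peptide (8 µM solution) and ATP (800 µM solution for c-Src, 60 µM for Syk) were then added for 1 h, followed by protease development for 1 h. Phosphorylation was read as the coumarin/fluorescein emission ratio.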

[2] = system: human hepatocytes; experiment: Human hepatocyte stability test; type: in vitro ADME
Method: Assessment of certain in vitro ADME (absorption, distribution, metabolism, and excretion) parameters for certain compounds of the invention was conducted by BioFocus (Saffron Walden, UK).

[3] = system: β-catenin in d-U937 cells; experiment: Accumulation of β catenin in d-U937 cells (assay m); type: cell-based, human
How it was run: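 U937 cells were differentiated with PMA (100 ng/mL) for 48–72 hr, then treated with compound or vehicle for 18 hr. After formaldehyde fixation, β-catenin was detected with a primary antibody and an HRP secondary using TMB (OD450–655). Signal was normalised to crystal violet cell staining (OD595).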

[4] = Plasma pharmacokinetics and total colon tissue distribution in mice, single oral administration; type: in vivo, mouse (male C57BL/6); conditions: male, C57BL/6, mouse, 5 mg/kg
Method: Studies were conducted by Sai Life Sciences (Hinjewadi, Pune, India) to investigate the plasma pharmacokinetics and total colon tissue distribution of compounds of the invention. In particular, pharmacokinetic studies were carried out in: • male C57BL/6 mice, following a single oral administration; and • male Wistar rats following a single intravenous or oral administration.

[5] = Hydrolytic stability study; type: physicochemical; conditions: DMSO:water (3:1), 1 mg/mL
Method: Chemical stability of compounds of the invention was assessed in a mixture of DMSO and water (3:1) at a test compound concentration of 1 mg/mL
Sample Preparation • A 1.0 mg sample of test compound was dissolved in 750 μL of DMSO. Water (250 μL) was added slowly, ensuring no precipitation occurred.
Recording Stability • A 50 μL aliquot of the test solution was removed and analysed in duplicate by 5 μL HPLC injections. The peak area for the test compound was recorded following manual integration of the corresponding UV trace. • The test solution was heated to 60° C., with stirring, and 50 μL aliquots removed for HPLC analysis at 5 and 24 h timepoints.

[6] = system: rat, Cynomolgus macaque or human hepatocytes; experiment: Analysis of metabolites after incubation with hepatocytes; type: in vitro ADME; conditions: 10 μM
Method: Studies were conducted by BioFocus (Saffron Walden, UK) to determine the metabolic fate of the compound of Example 16 following incubation with rat, Cynomolgus macaque or human hepatocytes.
Separate incubations (n=3) of the compound of Example 16 (10 μM initial concentration) or DMSO control, were performed with cryopreserved hepatocytes from each species (0.5 million cell/mL) at 37° C. for 0, 60 and 90 minutes before termination of reactions and compound extraction with acetonitrile. Sample replicates were pooled prior to analysis.
Potential metabolites were identified using time-of-flight (TOF) and triple quadruple (TQ) mass spectrometers.

[7] = plasma, read-out: Median plasma concentration
[8] = total colon, read-out: Median total colon concentration

Sequence of c-Src (P12931 whole entry, looked up): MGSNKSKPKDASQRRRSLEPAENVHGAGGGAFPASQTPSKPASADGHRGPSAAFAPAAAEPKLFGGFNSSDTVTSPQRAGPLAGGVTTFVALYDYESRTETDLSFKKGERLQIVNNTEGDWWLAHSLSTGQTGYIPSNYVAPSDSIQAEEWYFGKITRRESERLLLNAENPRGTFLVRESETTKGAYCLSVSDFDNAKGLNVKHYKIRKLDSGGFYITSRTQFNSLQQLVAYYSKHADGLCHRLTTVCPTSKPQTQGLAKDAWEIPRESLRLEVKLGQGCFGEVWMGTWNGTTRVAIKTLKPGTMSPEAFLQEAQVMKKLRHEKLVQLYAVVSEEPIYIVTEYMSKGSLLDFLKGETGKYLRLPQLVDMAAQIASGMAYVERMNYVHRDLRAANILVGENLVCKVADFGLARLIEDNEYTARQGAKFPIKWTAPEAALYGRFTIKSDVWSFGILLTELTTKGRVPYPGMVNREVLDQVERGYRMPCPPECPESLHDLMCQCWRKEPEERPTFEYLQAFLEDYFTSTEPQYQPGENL

COCCOCCOCCNC(=O)c1cc(Nc2cc(Oc3ccc(NC(=O)Nc4cc(C(C)(C)C)cc(NS(C)(=O)=O)c4OC)c4ccccc34)ccn2)cc(OC)c1 [Example 3, 3-((4-((4-(3-(5-(tert-Butyl)-2-methoxy-3-(methylsulfonamido)phenyl)ureido)naphthalen-1-yl)oxy)pyridin-2-yl)amino)-5-methoxy-N-(2-(2-(2-methoxyethoxy)ethoxy)ethyl)benzamide]
IC50 [1]: 0.02 µM
Mean hepatic extraction ratio [2]: 0.85
% β-catenin induction ([3]; test compound 1 μg/mL): 0%
% β-catenin induction ([3]; test compound 5 μg/mL): 4%
% β-catenin induction ([3]; test compound 10 μg/mL): 4%
concentration at 6 h [4, 7]: 114 ng/mL
concentration at 1 h [4, 8]: 107 ng/g
concentration at 2 h [4, 8]: 274 ng/g
concentration at 4 h [4, 8]: 209 ng/g
concentration at 6 h [4, 8]: 255 ng/g
concentration at 8 h [4, 8]: 278 ng/g
concentration at 12 h [4, 8]: 232 ng/g
concentration at 24 h [4, 8]: 19.1 ng/g

COCCOCCOCCOc1cc(Nc2nccc(Oc3ccc(NC(=O)Nc4cc(C(C)(C)C)cc(NS(C)(=O)=O)c4OC)c4ccccc34)n2)cc(OC)c1 [Example 4, N-(5-(tert-Butyl)-2-methoxy-3-(3-(4-((2-((3-methoxy-5-(2-(2-(2-methoxyethoxy)ethoxy)-ethoxy)phenyl)amino)pyrimidin-4-yl)oxy)naphthalen-1-yl)ureido)phenyl)methanesulfonamide]
IC50 [1]: 0.014 µM
% Parent Remaining ([5]; 0 min): 100%
% Parent Remaining ([5]; 60° C., 300 min): 103%
% Parent Remaining ([5]; 60° C., 1440 min): 102%
% β-catenin induction ([3]; test compound 1 μg/mL): 3%
% β-catenin induction ([3]; test compound 5 μg/mL): 20%
% β-catenin induction ([3]; test compound 10 μg/mL): 20%

C#Cc1cc(Nc2nccc(Oc3ccc(NC(=O)Nc4cc(C(C)(C)C)cc(NS(C)(=O)=O)c4OC)c4ccccc34)n2)cc(C(=O)NCCOCCOCCOC)c1 [Example 16]
% Parent Remaining ([5]; 0 min): 100%
% Parent Remaining ([5]; 60° C., 300 min): 100%
% Parent Remaining ([5]; 60° C., 1440 min): 100%
number of metabolites resulting from oxidation on the polyethylene glycol chain of the amide moiety ([6]; hepatocytes): 8
products connected to metabolism at the naphthalene moiety ([6]; hepatocytes): no products were noted
number of metabolites formed in hepatocytes ([6]; rat, Cynomolgus macaque or human hepatocytes, 0, 60 and 90 minutes): 9

COc1cc(Nc2cc(Oc3ccc(NC(=O)Nc4cc(C(C)(C)C)cc(NS(C)(=O)=O)c4OC)c4ccccc34)ccn2)cc(C(=O)NCCN2CCOCC2)c1 [Example 27]
IC50 [1]: 0.026 µM
% Parent Remaining ([5]; 0 min): 100%
% Parent Remaining ([5]; 60° C., 300 min): 102%
% Parent Remaining ([5]; 60° C., 1440 min): 102%
% β-catenin induction ([3]; test compound 1 μg/mL): −12%
% β-catenin induction ([3]; test compound 5 μg/mL): −7%
% β-catenin induction ([3]; test compound 10 μg/mL): −1%

COc1c(NC(=O)Nc2ccc(Oc3ccnc(Nc4ccccc4)c3)c3ccccc23)cc(C(C)(C)C)cc1C(=O)NC1COC1 [Example 75, 5-(tert-Butyl)-2-methoxy-N-(oxetan-3-yl)-3-(3-(4-((2-(phenylamino)pyridin-4-yl)oxy)-naphthalen-1-yl)ureido)benzamide]
IC50 [1]: 0.097 µM
% Parent Remaining ([5]; 0 min): 100%
% Parent Remaining ([5]; 60° C., 300 min): 101%
% Parent Remaining ([5]; 60° C., 1440 min): 99%
Mean hepatic extraction ratio [2]: <0.50
% β-catenin induction ([3]; test compound 1 μg/mL): 3%
% β-catenin induction ([3]; test compound 5 μg/mL): 25%
% β-catenin induction ([3]; test compound 10 μg/mL): 30%
concentration at 1 h [4, 7]: 1.8 ng/mL
concentration at 2 h [4, 7]: 1.5 ng/mL
concentration at 4 h [4, 7]: 0 µg/mL
concentration at 6 h [4, 7]: 0 ng/mL
concentration at 8 h [4, 7]: 0 µg/mL
concentration at 12 h [4, 7]: 0 µg/mL
concentration at 24 h [4, 7]: 0 µg/mL
concentration at 1 h [4, 8]: 17.8 ng/g
concentration at 2 h [4, 8]: 56.2 ng/g
concentration at 4 h [4, 8]: 1340 ng/g
concentration at 6 h [4, 8]: 5720 ng/g
concentration at 8 h [4, 8]: 350 ng/g
concentration at 12 h [4, 8]: 391 ng/g
concentration at 24 h [4, 8]: 7.5 ng/g
